Measured values: patent publication US4636499A, “Sulphenamides” (priority 1984, dated 1987)

Key:
[1] = target: T1, Hog gastric H^+,K^+ -ATPase (Sus scrofa, UniProt P19156); test: In vitro inhibition of gastric H^+,K^+-ATPase; type: biochemical; details: pH 7,4; 30 minutes of incubation; 10 μg membrane protein (GI-fraction); read-out: concentration at half-maximal inhibition (IC50) (converted)
T1 construct: from tissue; host or cells: hog gastric membranes (GI-fraction)
Experimental: I. In vitro inhibition of gastric H^+,K^+ -ATPase
Hog gastric H^+,K^+ -ATPase was purified according to Saccomani et al., Biochim. Biophys. Acta 465, 311-330, 1977. 10 μg of membrane protein (GI-fraction in the reference listed above) was incubated with 2 mmol/l of piperazine-N,N'-bis-(2-ethane sulfonic acid) buffer pH 7,4 and the test compound in concentrations 10^-7 -10^-4 M in a final volume of 1 ml. (The test compound was dissolved in methanol. Aliquots of these stock solutions were diluted to a final methanol concentration below 1%, which on its own had no effect on the enzyme activities.) After 30 minutes of incubation, the remaining H^+,K^+ -ATPase activity was determined, according to Wallmark et al., Biochim. Biophys. Acta, 728, 31-38, 1983. A dose-response curve was constructed and the concentration at half-maximal inhibition (IC50) could be determined.

gastric acid secretion = test: Inhibiting effect in vivo on gastric acid secretion in conscious dog; details: 4 μmol/kg; orally by stomach tube; histamine-induced; gastric fistula dogs
Experimental: II. Inhibiting effect in vivo on gastric acid secretion in conscious dog
Chronic gastric fistula dogs were used. These dogs have been surgically provided with a gastric cannula in the stomach and a duodenal fistula used for direct intraduodenal administration of test compounds. Following a 4 weeks' recovery period after surgery, tests were performed once a week on each dog. Food and water were withdrawn 18 hours before each test.
The test compound was suspended in 0.5% Methocel® (90 HG, 15.000, Dow Chem Corp.), the pH was immediately adjusted to about 4 by addition of hydrochloric acid and the suspension administered orally by using a stomach tube. After 1 hour gastric acid secretion was induced by continuous infusion of histamine at individual doses (400-600 nmol/kg, h), resulting in approx. 90% of maximal secretion of gastric acid. The gastric juice was collected by free flow from the gastric cannula in consecutive 30 minutes samples for 2 hours. The samples were titrated to pH 7.0 with 0.1M NaOH using a Radiometer automatic titrator and the acid output was calculated. The percent inhibition of acid secretion was calculated by comparing in each dog the acid output in the tests to the acid output in control tests when only the vehicle was given. The peak inhibitory effect for each compound was determined. […]

[2] = tested on: ethanol-induced gastric lesions; test: In vivo cytoprotective effect: effect on ethanol-induced gastric lesions in the rat; design: species or system rat (female Spraque-Dawley); details: for total lengths of lesions in the stomachs: 20 μmol/kg oral
Experimental: III. In vivo cytoprotective effect: Effect on ethanol-induced gastric lesions in the rat
Two groups of female Spraque-Dawley rats (190-220 g) were used, one for the test compound and one for the control experiment. Food, but not water, was removed 24 h before the experiments.
The animals in the test group were treated orally with the test compound dissolved in 0.01M HCl immediately before the test and the animals in the control group were given the vehicle (0.01M HCl) in a dose of 1 ml/kg.
Five or thirty minutes later the rats were given orally 1 ml of absolute ethanol (a standard agent for inducing gastric mucosal lesions).
Thirty minutes later the rats were killed by carbon dioxide asphyxiation, their stomachs dissected out and the gastric mucosae were examined for the presence of necrotic lesions. The total lengths of the lesions in the stomachs were measured in the test group and in the control group, in both cases treated five and thirty minutes before with ethanol.

T1 sequence (P19156 2-1034 limits assumed): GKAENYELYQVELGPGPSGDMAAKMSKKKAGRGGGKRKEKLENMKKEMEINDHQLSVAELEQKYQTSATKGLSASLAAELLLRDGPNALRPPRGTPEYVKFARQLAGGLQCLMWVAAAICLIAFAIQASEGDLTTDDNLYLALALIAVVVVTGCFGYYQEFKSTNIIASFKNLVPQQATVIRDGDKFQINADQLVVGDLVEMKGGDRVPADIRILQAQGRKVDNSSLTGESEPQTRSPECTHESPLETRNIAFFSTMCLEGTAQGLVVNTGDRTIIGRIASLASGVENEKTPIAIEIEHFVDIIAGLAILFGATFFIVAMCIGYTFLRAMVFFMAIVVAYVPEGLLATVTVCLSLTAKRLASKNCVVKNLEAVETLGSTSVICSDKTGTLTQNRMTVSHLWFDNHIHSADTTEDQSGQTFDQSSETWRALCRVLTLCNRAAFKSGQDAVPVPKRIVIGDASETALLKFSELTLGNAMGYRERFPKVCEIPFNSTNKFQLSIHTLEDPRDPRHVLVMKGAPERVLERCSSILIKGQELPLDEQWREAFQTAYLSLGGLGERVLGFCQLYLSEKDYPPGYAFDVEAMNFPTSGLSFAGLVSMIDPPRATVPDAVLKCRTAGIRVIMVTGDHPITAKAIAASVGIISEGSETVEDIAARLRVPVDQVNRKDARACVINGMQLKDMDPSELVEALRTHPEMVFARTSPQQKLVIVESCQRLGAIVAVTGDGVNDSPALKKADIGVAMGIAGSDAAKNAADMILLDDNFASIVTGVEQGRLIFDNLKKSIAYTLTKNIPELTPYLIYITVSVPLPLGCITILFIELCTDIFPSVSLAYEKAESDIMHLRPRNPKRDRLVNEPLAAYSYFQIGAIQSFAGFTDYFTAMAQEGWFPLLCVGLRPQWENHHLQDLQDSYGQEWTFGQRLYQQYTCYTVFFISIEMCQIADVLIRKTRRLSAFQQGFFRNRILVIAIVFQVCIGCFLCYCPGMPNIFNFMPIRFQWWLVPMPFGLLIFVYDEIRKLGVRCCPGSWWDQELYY
T1 sequence (P18434 whole entry partner): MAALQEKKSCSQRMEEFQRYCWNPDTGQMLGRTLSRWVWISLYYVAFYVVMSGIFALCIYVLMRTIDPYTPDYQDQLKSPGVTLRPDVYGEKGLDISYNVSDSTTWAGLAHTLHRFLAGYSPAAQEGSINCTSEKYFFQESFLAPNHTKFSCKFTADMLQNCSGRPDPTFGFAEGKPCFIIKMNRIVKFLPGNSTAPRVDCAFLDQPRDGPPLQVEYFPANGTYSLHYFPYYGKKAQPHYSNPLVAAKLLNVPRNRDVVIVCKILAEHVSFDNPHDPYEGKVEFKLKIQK

- IC50 [1]: 600 nM
Substance: 2,4-Dimethyl-3,9-dimethoxy-5H-pyrido[1',2':4,5][1,2,4]thiadiazino[2,3-a]benzimidazol-13-ium tetrafluoroborate (1A) and 2,4-Dimethyl-3,10-dimethoxy-5H-pyrido[1',2':4,5][1,2,4]thiadiazino[2,3-a]benzimidazol-13-ium tetrafluoroborate (1B) (isomeric mixture) [Examples 1A and 1B]
- percent inhibition of acid secretion (peak inhibitory effect) (gastric acid secretion): 40%
- total lengths of lesions in the stomachs ([2]; 5 min before ethanol, control 11.4 cm): 5.3 cm
- total lengths of lesions in the stomachs ([2]; 30 min before ethanol, control 10.4 cm): 4.4 cm
- ED50-value (cytoprotective effect) ([2]; oral, ethanol-induced gastric lesions, indicated by lesion reduction at 20 μmol/kg): below 20 μmol/kg
